Experiments:
[1] = tested on: normal NK cells expanded with K562-aAPC; assay: percent inhibition of viability; higher = more inhibition; settings: 72 h, IL-2 2.5 ng/mL
Description: (§1)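 Drug sensitivity and resistance testing on K562-aAPC-expanded normal NK cells: 5 concentrations (10-fold steps over a 10,000-fold range), 72 h at 37 °C, viability by CellTiter-Glo normalised to DMSO and benzethonium chloride controls; DSS from the fitted curve.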

[2] = tested on: normal primary NK cells, pool 1 (3 donors), resting (IL-2 0 ng/mL); assay: drug sensitivity score (DSS) (DSS units); higher = more sensitive; extreme values may be limits of the assay; settings: 72 h
[3] = tested on: DERL-7 (IL-2 2.5 ng/mL); assay: as above; settings: 72 h
[4] = tested on: normal primary NK cells, pool 3 (3 donors) (IL-2 2.5 ng/mL); assay: as above; settings: 72 h
[5] = tested on: KAI3 (IL-2 2.5 ng/mL); assay: as above; settings: 72 h
[6] = tested on: YT (IL-2 2.5 ng/mL); assay: as above; settings: 72 h
[7] = tested on: KHYG-1 (IL-2 2.5 ng/mL); assay: as above; settings: 72 h
[8] = tested on: NK-92 (IL-2 2.5 ng/mL); assay: as above; settings: 72 h
[9] = tested on: SNK-6 (IL-2 2.5 ng/mL); assay: as above; settings: 72 h
[10] = tested on: normal primary NK cells, pool 2 (3 donors) (IL-2 2.5 ng/mL); assay: as above; settings: 72 h
[11] = tested on: NKL (IL-2 2.5 ng/mL); assay: as above; settings: 72 h
[12] = tested on: NK-YS (IL-2 2.5 ng/mL); assay: as above; settings: 72 h
[13] = tested on: IMC-1 (IL-2 20 ng/mL); assay: as above; settings: 72 h
[14] = tested on: normal primary NK cells, pool 1 (3 donors) (IL-2 2.5 ng/mL); assay: as above; settings: 72 h
[15] = tested on: normal primary NK cells, pool 1 (3 donors), resting (IL-2 0 ng/mL); assay: percent inhibition of viability; higher = more inhibition; settings: 72 h
[16] = tested on: DERL-7 (IL-2 2.5 ng/mL); assay: as above; settings: 72 h
[17] = tested on: normal primary NK cells, pool 3 (3 donors) (IL-2 2.5 ng/mL); assay: as above; settings: 72 h
[18] = tested on: KAI3 (IL-2 2.5 ng/mL); assay: as above; settings: 72 h
[19] = tested on: YT (IL-2 2.5 ng/mL); assay: as above; settings: 72 h
[20] = tested on: KHYG-1 (IL-2 2.5 ng/mL); assay: as above; settings: 72 h
[21] = tested on: NK-92 (IL-2 2.5 ng/mL); assay: as above; settings: 72 h
[22] = tested on: SNK-6 (IL-2 2.5 ng/mL); assay: as above; settings: 72 h
[23] = tested on: normal primary NK cells, pool 2 (3 donors) (IL-2 2.5 ng/mL); assay: as above; settings: 72 h
[24] = tested on: NKL (IL-2 2.5 ng/mL); assay: as above; settings: 72 h
[25] = tested on: NK-YS (IL-2 2.5 ng/mL); assay: as above; settings: 72 h
[26] = tested on: IMC-1 (IL-2 20 ng/mL); assay: as above; settings: 72 h
[27] = tested on: normal primary NK cells, pool 1 (3 donors) (IL-2 2.5 ng/mL); assay: as above; settings: 72 h
[28] = tested on: normal NK cells expanded with K562-aAPC; assay: drug sensitivity score (DSS) (DSS units); higher = more sensitive; extreme values may be limits of the assay; settings: 72 h; IL-2 2.5 ng/mL
Description: as §1

CNC(=O)c1cccc2cc(Oc3ccnc4cc(OCC5(N)CC5)c(OC)cc34)ccc12 [Lucitanib] (max concentration tested 10000 nM)
percent inhibition of viability [%]
Settings	1 nM	10 nM	100 nM	1000 nM	10000 nM
[1]	-5.59	-4.77	-3.52	4.7	23.6
[15]	-16.7	4.29	3.09	0.61	22.1
[16]	-0.32	-4.66	2.4	-2.57	23.4
[17]	-7.6	0.39	3.76	-6.23	-5.45
[18]	-0.3	-0.75	-0.45	11.7	49.6
[19]	-5.87	-7.33	-6.32	-2.96	58.7
[20]	-3.19	-3.91	-0.83	10.4	70.4
[21]	-12.1	-11.8	3.06	13.7	83.8
[22]	-7.37	-13.2	-13.8	-8.69	69.6
[23]	-3.78	2.2	2.46	-3.23	-5
[24]	1.05	4.31	4.24	-3.6	3.06
[25]	-6.67	-4.7	-0.96	9.75	65.5
[26]	-4.99	1.11	1.41	2.72	0.85
[27]	-6.86	10.5	-2.99	8.01	5.53

Settings	drug sensitivity score
[2]	0.81
[3]	0.68
[4]	0
[5]	4.47
[6]	2.92
[7]	5.63
[8]	6.93
[9]	3.25
[10]	0
[11]	0
[12]	5.23
[13]	0
[14]	0
[28]	1.53

CCCOc1ccn2c(C(C)=O)cc(-c3ccccc3S(C)(=O)=O)c2c1 [GSK2801] (max concentration tested 10000 nM)
percent inhibition of viability [%]
Settings	1 nM	10 nM	100 nM	1000 nM	10000 nM
[1]	0.95	-8.4	-3.92	-5.08	3.93
[15]	-9.69	-17.6	-10.8	10.7	38
[16]	3.66	0.68	6.46	3.78	26.7
[17]	-5.87	2.4	-5.15	-6.31	4.35
[18]	-0.66	1.6	3.26	1.19	13.8
[19]	-2.89	-0.79	-3.2	1.49	5.33
[20]	-6.23	-1.14	-4.5	-0.03	3.02
[21]	13.2	-11.5	-4.85	-3.31	1.17
[22]	9.8	1.5	0.45	0.35	15.4
[23]	-4.35	-4.55	-1.61	-2.13	14.3
[24]	-3.96	-3.81	7.18	-1.4	23.3
[25]	-2.46	-2.16	-2.35	-0.19	12.5
[26]	-5.58	-4	-5.67	-6.64	-7.6
[27]	-8.08	-8.31	-8.28	1.69	18.7

Settings	drug sensitivity score
[2]	3.45
[3]	1.67
[4]	0
[5]	0.24
[6]	0
[7]	0
[8]	0
[9]	0.29
[10]	0.12
[11]	0.73
[12]	0.07
[13]	0
[14]	0.69
[28]	0
